Measured values as given in ChEMBL document CHEMBL5550211 (J Med Chem, 2024).

Tests used:
[1] = Substrate activity at P-gp in LLC-PK1 cells assessed as efflux ratio of apparent permeability from basolateral to apical side over apical to basolateral side; format: ADME, cell-based, Sus scrofa; conditions: pig
[2] = target: T1, Serine/threonine-protein kinase B-raf (Homo sapiens, UniProt P15056, V600E); assay: Inhibition of BRAF V600E mutant in human A-375 cells assessed as reduction in ERK phosphorylation; format: cell-based
T1 sequence (P15056 2-766 V600E limits assumed): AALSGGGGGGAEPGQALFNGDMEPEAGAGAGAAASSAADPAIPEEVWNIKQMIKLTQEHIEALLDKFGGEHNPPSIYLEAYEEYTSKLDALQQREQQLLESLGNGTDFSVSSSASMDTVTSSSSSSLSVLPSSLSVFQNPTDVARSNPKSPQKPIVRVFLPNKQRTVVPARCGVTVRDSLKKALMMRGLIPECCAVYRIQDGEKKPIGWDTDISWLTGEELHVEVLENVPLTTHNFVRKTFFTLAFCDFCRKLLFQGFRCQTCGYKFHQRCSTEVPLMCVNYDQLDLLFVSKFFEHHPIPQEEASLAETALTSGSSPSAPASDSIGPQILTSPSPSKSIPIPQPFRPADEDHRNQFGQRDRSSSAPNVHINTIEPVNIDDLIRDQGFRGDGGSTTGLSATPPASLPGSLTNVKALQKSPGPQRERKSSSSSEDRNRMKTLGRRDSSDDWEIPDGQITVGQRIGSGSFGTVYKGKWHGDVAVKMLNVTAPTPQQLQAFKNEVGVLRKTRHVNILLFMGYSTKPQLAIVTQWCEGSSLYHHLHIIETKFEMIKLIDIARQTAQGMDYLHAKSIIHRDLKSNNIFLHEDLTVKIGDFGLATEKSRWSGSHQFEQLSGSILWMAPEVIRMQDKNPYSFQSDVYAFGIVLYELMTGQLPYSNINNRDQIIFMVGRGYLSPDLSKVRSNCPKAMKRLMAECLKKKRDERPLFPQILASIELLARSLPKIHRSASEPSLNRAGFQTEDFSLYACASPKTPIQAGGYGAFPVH

[3] = Substrate activity at BCRP in LLC-PK1 cells assessed as efflux ratio of apparent permeability from basolateral to apical side over apical to basolateral side; format: ADME, cell-based, Sus scrofa; conditions: pig
[4] = Apparent permeability across apical to basolateral side in LLC-PK1 cells; format: ADME, cell-based, Sus scrofa; conditions: pig
[5] = target: T1, Serine/threonine-protein kinase B-raf; assay: Inhibition of 6-His tagged BRAF V600E mutant (445 to 723 residues) (unknown origin)
[6] = Dissociation constant, pKa of the compound; format: physicochemical

Ratio [1] | IC50 [2] | Ratio [3] | Papp A→B [4] | IC50 [5] | pKa [6] | SMILES
1.2 | 113 nM | 0.8 | 27 ×10⁻⁶ cm/s | 77.4 nM | – | CCC(C)S(=O)(=O)Nc1ccc(F)c(Nc2ccc3ncn(C)c(=O)c3c2C)c1Cl (stereo unspecified)
1.3 | 35.5 nM | 1.2 | 28 ×10⁻⁶ cm/s | 14.5 nM | 7.88 | CCCS(=O)(=O)Nc1ccc(F)c(Nc2ccc3ncn(C)c(=O)c3c2C)c1Cl
